Measurements published in patent publication US10456379B2, “Imidazole-based antimicrobial agents” (priority 2014, dated 2019).
Converted amounts (≈) assume the structure as drawn.

Experiments:
[1] = tested on: Staphylococcus epidermidis (PCI 1200, ATCC12228); test: Broth microdilution MIC assay, Staphylococcus epidermidis; format: cell-based; settings: read-out: Antibacterial activity, SE (Staphylococcus epidermidis), MIC class
[2] = tested on: vancomycin-resistant Enterococcus faecium (ATCC51559); test: microbe, parasite or virus in culture; format: cell-based; settings: ATCC51559; vancomycin-resistant Enterococcus faecium; read-out: Antibacterial activity, VREFm (vancomycin-resistant EFm), MIC class
[3] = tested on: Enterococcus faecalis (ATCC29212); test: Broth microdilution MIC assay, Enterococcus faecalis; format: cell-based; settings: read-out: Antibacterial activity, EFs (Enterococcus faecalis), MIC class
[4] = tested on: vancomycin-resistant Enterococcus faecalis (ATCC51575); test: microbe, parasite or virus in culture; format: cell-based; settings: ATCC51575; vancomycin-resistant Enterococcus faecalis; read-out: Antibacterial activity, VREFs (vancomycin-resistant EFs), MIC class
[5] = tested on: Streptococcus pneumoniae (Chester, ATCC49619); test: Broth microdilution MIC assay, Streptococcus pneumoniae; format: cell-based; settings: for Antibacterial activity Streptococcus pneumoniae: MIC class score, MIC100, broth microdilution; for MIC: Streptococcus pneumoniae, ATCC49619, read-out: Antibacterial activity, SP (Streptococcus pneumoniae), MIC class
[6] = tested on: daptomycin-resistant Staphylococcus aureus (from MRSA COL); test: Broth microdilution MIC assay, daptomycin-resistant MRSA; format: cell-based; settings: 24 h, read-out: Antibacterial activity, MRSA strains with additional resistance, D (daptomycin), MIC class
[7] = tested on: Enterococcus faecium (AGR15, ATCCBAA-2127); test: Broth microdilution MIC assay, Enterococcus faecium; format: cell-based; settings: ATCCBAA2127, read-out: Antibacterial activity, EFm (Enterococcus faecium), MIC class
[8] = tested on: Escherichia coli TolC mutant strain ΔtolC; format: cell-based
[9] = tested on: Bacillus subtilis (Marburg strain, ATCC6051); test: microbe, parasite or virus in culture; format: cell-based; settings: ATCC6051, read-out: Antibacterial activity, BS (Bacillus substilis), MIC class
[10] = tested on: Mycobacterium smegmatis (mc(2)155); test: Broth microdilution MIC assay, Mycobacterium smegmatis

Compound | MIC [1] | MIC [2] | MIC [3] | MIC [4] | Antibacterial activity Streptococcus pneumoniae [5] | MIC [5] | MIC [6] | MIC [7] | Antibacterial activity, EC Δ (Escherichia coli ΔtoIC), MIC class [8] | MIC [9] | Antibacterial activity, MS (Mycobacterium smegmatis), MIC class [10]
CN(C)Cc1[nH]c(-c2ccc(-c3ccccc3C(F)(F)F)o2)nc1-c1ccccc1 [compound 70] | 11 to 20 µg/mL (≈ 26.7 to 48.6 µM) | 11 to 20 µg/mL (≈ 26.7 to 48.6 µM) | 11 to 20 µg/mL (≈ 26.7 to 48.6 µM) | 11 to 20 µg/mL (≈ 26.7 to 48.6 µM) | 3 (MIC100 of 2-5 μg/ml) | 2 to 5 µg/mL (≈ 4.86 to 12.2 µM) | 3 to 10 µg/mL (≈ 7.29 to 24.3 µM) | 11 to 20 µg/mL (≈ 26.7 to 48.6 µM) | 3 (MIC100 of 3-10 μg/ml) | – | –
Cc1nc(-c2ccc(-c3ccc(Cl)cc3C(F)(F)F)o2)[nH]c1-c1ccccc1 [compound 32] | – | 20 to 50 µg/mL (≈ 49.7 to 124 µM) | – | – | 3 (MIC100 of 2-5 μg/ml) | 2 to 5 µg/mL (≈ 4.97 to 12.4 µM) | – | – | – | 3 to 10 µg/mL (≈ 7.45 to 24.8 µM) | –
Cc1[nH]c(-c2ccc(-c3ccc(Cl)cc3)s2)nc1-c1ccccc1 [compound 6] | – | – | – | – | 3 (MIC100 of 2-5 μg/ml) | – | – | – | – | 11 to 20 µg/mL (≈ 31.4 to 57 µM) | 2 (MIC100 of 11-20 μg/ml)
